Laboratory results reported in ChEMBL document CHEMBL1201862, “PubChem BioAssay data set” (2004).
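Compound exposure: 48 hours, 5 concentrations, 96-well plates. GI50 marks 50% less growth.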 Active and inactive are the calls of the source. No stated cut-off is given here; in the data, active = GI50 up to about 1.1 µM and inactive = higher.

What was measured:
Experiment in all cases: NCI anticancer screen, dose series, 48 h
CCRF-CEM = tested on: CCRF-CEM
SK-MEL-5 = tested on: SK-MEL-5
EKVX = tested on: EKVX
K562 = tested on: K562
SR = tested on: SR
Malme-3M = tested on: Malme-3M
SF-268 = tested on: SF-268
SK-MEL-28 = tested on: SK-MEL-28
M14 = tested on: M14
HOP-92 = tested on: HOP-92
SNB-19 = tested on: SNB-19
KM12 = tested on: KM12
MDA-N = tested on: MDA-N
HCT-15 = tested on: HCT-15
BT-549 = tested on: BT-549
CAKI-1 = tested on: CAKI-1
ACHN = tested on: ACHN
HCC 2998 = tested on: HCC 2998
RXF 393 = tested on: RXF 393

SMILES | GI50 (CCRF-CEM) | GI50 (SK-MEL-5) | GI50 (EKVX) | GI50 (K562) | GI50 (SR) | GI50 (Malme-3M) | GI50 (SF-268) | GI50 (SK-MEL-28) | GI50 (M14) | GI50 (HOP-92) | GI50 (SNB-19) | GI50 (KM12) | GI50 (MDA-N) | GI50 (HCT-15) [µM] | GI50 (BT-549) | GI50 (CAKI-1) | GI50 (ACHN) | GI50 (HCC 2998) | GI50 (RXF 393)
O=[N+]([O-])c1ccc2c3ccccc3[s+]([O-])c2c1 (stereo unspecified) | > 100 µM (inactive) | > 100 µM (inactive) | 35.2 µM (inactive) | > 100 µM (inactive) | > 100 µM (inactive) | 30.5 µM (inactive) | > 100 µM (inactive) | > 100 µM (inactive) | > 100 µM (inactive) | > 100 µM (inactive) | > 100 µM (inactive) | > 100 µM (inactive) | > 100 µM (inactive) | > 100 | > 100 µM (inactive) | > 100 µM (inactive) | > 100 µM (inactive) | – | –
N#Cc1c(-c2ccco2)c2c(n(C3OC(CO)C(O)C(O)C3O)c1=S)CCCC2 (stereo unspecified) | > 100 µM (inactive) | 85.9 µM (inactive) | > 100 µM (inactive) | – | > 100 µM (inactive) | > 100 µM (inactive) | > 100 µM (inactive) | > 100 µM (inactive) | > 100 µM (inactive) | > 100 µM (inactive) | – | > 100 µM (inactive) | > 100 µM (inactive) | > 100 | – | > 100 µM (inactive) | > 100 µM (inactive) | > 100 µM (inactive) | > 100 µM (inactive)
CCc1c(C)c(C#N)c(=S)n(C2OC(CO)C(O)C(O)C2O)c1C (stereo unspecified) | > 100 µM (inactive) | > 100 µM (inactive) | > 100 µM (inactive) | > 100 µM (inactive) | > 100 µM (inactive) | > 100 µM (inactive) | > 100 µM (inactive) | > 100 µM (inactive) | > 100 µM (inactive) | > 100 µM (inactive) | > 100 µM (inactive) | > 100 µM (inactive) | > 100 µM (inactive) | > 100 | – | – | > 100 µM (inactive) | > 100 µM (inactive) | > 100 µM (inactive)
CCOC(=O)CC(=O)Nc1c(C(=O)OCC)sc2nc(SC)nc(Nc3ccc(OC)c(OC)c3)c12 | > 100 µM (inactive) | > 100 µM (inactive) | > 100 µM (inactive) | – | – | > 100 µM (inactive) | 3.19 µM (inactive) | > 100 µM (inactive) | > 100 µM (inactive) | 9.25 µM (inactive) | – | 80.5 µM (inactive) | > 100 µM (inactive) | 39.9 | 27.5 µM (inactive) | 64 µM (inactive) | 19.8 µM (inactive) | > 100 µM (inactive) | 10.7 µM (inactive)
COc1cccc(CC2C(=O)N/C(=N\C(C)=O)N2C)c1OC(C)=O (stereo unspecified) | > 100 µM (inactive) | > 100 µM (inactive) | 44 µM (inactive) | – | – | – | > 100 µM (inactive) | 39 µM (inactive) | > 100 µM (inactive) | > 100 µM (inactive) | > 100 µM (inactive) | > 100 µM (inactive) | > 100 µM (inactive) | > 100 | > 100 µM (inactive) | > 100 µM (inactive) | > 100 µM (inactive) | > 100 µM (inactive) | > 100 µM (inactive)
c1ccc(-c2cc(-c3ccncc3)cc(-c3ccncc3)n2)cc1 | > 100 µM (inactive) | > 100 µM (inactive) | > 100 µM (inactive) | > 100 µM (inactive) | > 100 µM (inactive) | > 100 µM (inactive) | 45.6 µM (inactive) | > 100 µM (inactive) | > 100 µM (inactive) | – | 45.2 µM (inactive) | > 100 µM (inactive) | > 100 µM (inactive) | > 100 | > 100 µM (inactive) | > 100 µM (inactive) | > 100 µM (inactive) | > 100 µM (inactive) | > 100 µM (inactive)
CCCOc1ccc(-c2nc(-c3ccc(/N=C/c4ccc(N(CCOS(C)(=O)=O)CCOS(C)(=O)=O)cc4C)cc3)cs2)cc1 | 2.58 µM (inactive) | 27 µM (inactive) | 17.6 µM (inactive) | 22.5 µM (inactive) | 3.85 µM (inactive) | 44.4 µM (inactive) | 11.5 µM (inactive) | 67.9 µM (inactive) | 16.8 µM (inactive) | 24.4 µM (inactive) | 41.7 µM (inactive) | 13.6 µM (inactive) | 28.7 µM (inactive) | 23.4 | – | 1.3 µM (inactive) | 1.46 µM (inactive) | 12 µM (inactive) | 6.08 µM (inactive)
N/C(=N\n1c(=S)[nH]c2ccccc2c1=O)Nn1c(=S)[nH]c2ccccc2c1=O | 18.8 µM (inactive) | 44.4 µM (inactive) | 67.6 µM (inactive) | 26.6 µM (inactive) | 20.3 µM (inactive) | 20.5 µM (inactive) | 21.1 µM (inactive) | 28.2 µM (inactive) | 11.4 µM (inactive) | – | 88.3 µM (inactive) | 96.8 µM (inactive) | 24.7 µM (inactive) | 22.6 | 20.3 µM (inactive) | 13.2 µM (inactive) | 46.7 µM (inactive) | > 100 µM (inactive) | 35.3 µM (inactive)
